Usually EC50 stands for the concentration giving half of the maximal effect. Read a low EC50 as a more potent agent.

Results on five compounds are retold here after patent US3974165A, “Hypotensive agents” (Bristol-Myers Company, priority 1974, dated 1976).

In brackets after ≈: the same amount, converted by molar mass.

Experiment [1] relates to adenosine diphosphate (ADP) induced platelet aggregation. Briefly: In vitro inhibition of ADP induced platelet aggregation (aggregometer method of Born). In kind it is cell-based. To be noted: Oryctolagus cuniculus; rabbit platelet rich plasma, ADP 0.5 mcg./ml. How it is done: (§1) The aggregometer method of Born (1), as modified by Mustard et al (2) was used to assess the in vitro activity of the various compounds as to inhibition of adenosine diphosphate (ADP) and collagen induced platelet aggregation. Platelet rich plasma was separated by centrifugation from citrated (3.8 per cent) rabbit blood. ADP in final concentration of 0.5 mcg./ml. or 0.05 ml. of a collagen suspension prepared according to the method described by Evans et al. (3) was used to induce aggregation. The various compounds tested were dissolved in dimethylsulfoxide (DMSO) so that 5 mcl. added to the platelet rich plasma would yield the desired test concentration. Vehicle control trials were done and compared with aggregation induced in platelet rich plasma containing various concentrations of the test compounds. Dose response curves were obtained and Effective Concentration (EC50) values calculated.
(§2) 1. Born, G.V.R J. Physiol., London, 162, 67P (1962).
(§3) 2. mustard, J. F., Hegardt, B. Rowsell, H. C. and MacMillan, R. L., J. Lab. Clin. Med. 64, 548 (1964).
(§4) 3. Evans, G. Marian, M. C., Packham, M. A., Nishizawa, E. E., Mustard, J. F. and Murphy, E. A., J. Exp. Med., 128, 877 (1968).

The subject of experiment [2] is collagen induced platelet aggregation. The experiment is described as follows: In vitro inhibition of collagen induced platelet aggregation (aggregometer method of Born). To be noted: Oryctolagus cuniculus; rabbit platelet rich plasma, 0.05 ml. collagen suspension. It counts as cell-based. How it is done:
as §1, §2, §3, §4

A further experiment concerns conscious rats. The experiment is described as follows: Effect of compounds on mean aortic pressure and heart rate in conscious rats (oral). Conditions: for Heart Rate / mean aortic pressure / Heart Rate % Change / Aortic Pressure % Change: 50 mg/kg po; for Aortic Pressure % Change: - denotes a decrease in b.p. It counts as in vivo, genetically hypertensive rats. How it is done: The blood pressure of unanesthetized rats and dogs was measured directly by means of a transducer attached to an intra-arterial cannula and in anesthetized dogs by a mercury manometer attached to a carotid cannula.
The compounds of the instant invention were tested as the hydrochloride salts by the above method in genetically hypertensive rats in doses of 50 mg./kg. orally.
Compounds were studied by oral administration in conscious rats for their effects on aortic pressure and cardiac rate.

The conditions of experiment [3]: as compared to compound 1; Jen et al, J. Med. Chem. 16, 633 (1973); cited from earlier work.
[4] abbreviates: oral administration, conscious rats.

`O=C1CC2Cc3ccccc3N=C2N1` (centres unmarked) [drawing 3]: the EC50 in experiment [1] turned out to be 22 µg/mL (≈ 118 µM); in experiment [2], 27 µg/mL (≈ 145 µM).
On the same counts, the results for `Cc1cccc2c1CC1CC(=O)NC1=N2` (centres unmarked) [drawing 4] are 1.5 µg/mL (≈ 7.49 µM) and 0.3 µg/mL (≈ 1.5 µM).
With `Cc1cccc2c1CC1CC(=O)NC1=N2` (centres unmarked) [BL-4412], in the experiment with conscious rats (N=3, 0 min (baseline)), the “Heart Rate” value is reported as 352±21 Beats/Min and the mean aortic pressure amounted to 126±2 mmHg. For the same compound, in the experiment on conscious rats (N=3, 30 min), the “Heart Rate” value is 464±24 Beats/Min, the “Heart Rate % Change” value was found to be 34±15%, the mean aortic pressure is listed as 86±1 mmHg and the “Aortic Pressure % Change” value is -32%. In the experiment on conscious rats (N=3, 90 min), the “Heart Rate” value stood at 432±12 Beats/Min, the “Heart Rate % Change” value is reported as 24±10%, the mean aortic pressure was 86±2 mmHg and the “Aortic Pressure % Change” value was -31.2%. In the experiment with conscious rats (N=3, 150 min), the “Heart Rate” value is 422±12 Beats/Min, the “Heart Rate % Change” value is 21±11%, the mean aortic pressure worked out at 89±4 mmHg and the “Aortic Pressure % Change” value was -29%. Besides, in the experiment with conscious rats (N=3, 300 min), the “Heart Rate” value was found to be 422±19 Beats/Min, the “Heart Rate % Change” value was determined as 1±12% and the “Aortic Pressure % Change” value is given as -25%. Moreover, in the experiment on conscious rats (setting [4]), the “effect on aortic pressure (in words)” value is given as “appreciable fall in aortic pressure” and the “effect on heart rate (in words)” value is “not out of proportion to the fall in aortic pressure”.
Consider `c1ccc2c(c1)CC1CCNC1=N2` (centres unmarked) [compound 2], for which the “antihypertensive activity (in words)” value in experiment [3] is “low degree of antihypertensive activity”.
Turning to `O=C1CC2Cc3ccccc3N=C2N1` (centres unmarked) [BL-4369], the “Heart Rate” value with conscious rats (N=3, 0 min (baseline)) is 350±25 Beats/Min; in the experiment on conscious rats (N=3, 30 min) it was 420±19 Beats/Min; in the experiment on conscious rats (N=3, 90 min), 414±26 Beats/Min; in the experiment on conscious rats (N=3, 150 min), 370±31 Beats/Min; in the experiment with conscious rats (N=3, 300 min) it was 382±25 Beats/Min. Further, the mean aortic pressure in the experiment with conscious rats (N=3, 0 min (baseline)) was 114±2 mmHg; in the experiment on conscious rats (N=3, 30 min), 91±6 mmHg; in the experiment with conscious rats (N=3, 90 min), 110±3 mmHg; in the experiment with conscious rats (N=3, 150 min), 101±3 mmHg; in the experiment with conscious rats (N=3, 300 min), 109±8 mmHg. In addition, the “Heart Rate % Change” value in the experiment with conscious rats (N=3, 30 min) is 21±9%; in the experiment on conscious rats (N=3, 90 min), 19±9%; in the experiment with conscious rats (N=3, 150 min), 6±8%; in the experiment on conscious rats (N=3, 300 min), 10±7%. The “Aortic Pressure % Change” value in the experiment on conscious rats (N=3, 30 min) was -20±6%; in the experiment on conscious rats (N=3, 90 min) it was -3±4%; in the experiment on conscious rats (N=3, 150 min) it was -11±2%.
